Values quoted from earlier work in US4279898A, “In vivo inhibitors of cholesterol biosynthesis” (Research Foundation of the City University of New York, priority 1980, dated 1981).

Tested on: 5-phosphomevalonate kinase
Conditions: publications by the inventors

CC(O)(CCCP(=O)(O)O)CC(=O)O (stereo not shown) [5-carboxy-4-hydroxy-4-methylpentyl-1-phosphonic acid]
inhibition of 5-phosphomevalonate kinase: inhibition
